Assay results taken from US10329324B2 (viDA Therapeutics Inc., priority 2013, dated 2019).
Counter-ions that a name gives are not always drawn.

The molecules below were run against T1, human Granzyme B (hGzmB) (Homo sapiens, UniProt P10144) (assay: Human Granzyme B enzymatic inhibition assay (fluorogenic, kinetic)). Conditions: activity codes, Table 7; read-out: IC50 Activity Range.
T1 construct: purchased Froelich Lab, Northshore University Health Systems Research Institute, Evanston, Ill., USA
T1 sequence (P10144 21-247): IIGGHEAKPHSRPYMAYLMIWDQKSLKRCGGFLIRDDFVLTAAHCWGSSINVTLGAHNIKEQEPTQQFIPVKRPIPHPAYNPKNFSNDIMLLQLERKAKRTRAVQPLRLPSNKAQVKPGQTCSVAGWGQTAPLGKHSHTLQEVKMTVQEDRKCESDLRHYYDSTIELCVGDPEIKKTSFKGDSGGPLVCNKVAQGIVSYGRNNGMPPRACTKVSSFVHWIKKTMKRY
Assay type: biochemical
Description: A specific 2× assay buffer was prepared for the enzyme to be tested (see Table 2 for final 1× assay buffer compositions). If the assay buffer included DTT, it was added immediately prior to running the assay. A 2× enzyme mix was prepared (see Table 3 for enzyme assay conditions) at 80 uL per well. Compounds were screened at one or two appropriate concentrations (to determine the percent inhibition at those concentrations) and/or a full dose response curve (typically 8 points, to identify the IC50) in duplicate, triplicate, or higher replicates as needed. An appropriate control was also assessed in full dose response, in duplicate for each assay/plate. Background control wells consisted of 1× assay buffer, DMSO (5% v/v) and substrate. Positive control wells consisted of enzyme, DMSO (5% v/v) and substrate. Test compounds and control compounds were diluted in DMSO to […] the final desired concentration. For example, a test compound may be tested in dose response, in serial, tripling dilution condition starting at 20 uM and ending at 9.1 nM (or any appropriate concentration range and dilution scheme). Control compounds were prepared similarly. Diluted compounds were prepared in a dilution plate and transferred to the reaction plate (96-well medium binding plate (Greiner Bio-One FLUOTRAC™)) to allow for the desired final concentrations when added to the enzyme with AB. After mixing, the reaction plate was placed on a shaker (at 300 RPM) for 5 min, followed by incubation (covered) on the bench, for 20 min. Plates were warmed to reaction temperature (see Table 3) for a total incubation time of 30 min. Plates so prepared were ready for addition of substrate and the subsequent reaction.
(§1) An appropriate substrate for each assay was prepared in advance at 2× the final desired concentration (see Table 2) in DMSO. The appropriate substrate mix was added to each appropriate well on the reaction plate, and the plate was read immediately in the TECAN plate reader (TECAN INFINITE® M1000 Pro), set to the correct wavelength as needed for each assay (see Table 3) using 25 cycles, kinetic interval of 1 min, number of reads per well of 20 with shaking set to 1 s, double orbital, 2 mm amplitude. For fluorescent assays the gain was set to optimal (50%).
An in vitro fluorogenic detection assay for assessing the IC50 and/or percent inhibition at a given concentration of inhibitors against human Granzyme B (hGzmB) enzyme was performed as described in Example D1. When appropriate, percent inhibition data was collected and fitted to generate IC50 data using GraphPad Prism 5 (GraphPad Software, La Jolla Calif. USA, www.graphpad.com) and its non-linear regression analysis tools or other equivalent tools. […]
as §1, with “5)” for “2)”, “assay buffer. 30 uL of the” for “DMSO. The”, “6)” for “3)”, “15” for “25”, “(100% with gain regulation) for all assays except human GzmB which was set to 85 (with the z set at 23000 um).” for “(50%).”
An in vitro fluorogenic detection assay for assessing the IC50 and/or percent inhibition at a given concentration of inhibitors against human Granzyme B (hGzmB) enzyme was performed as described in Example D5. When appropriate, percent inhibition data was collected and fitted to generate IC50 data using GraphPad Prism 5 (GraphPad Software, La Jolla Calif. USA, www.graphpad.com) and its non-linear regression analysis tools or other equivalent tools.
In the case of `CC[C@H](C)[C@H](NC(=O)Cc1ccccc1)C(=O)NCC(=O)N1c2c(cccc2NC(C)=O)C[C@H]1C(=O)NCc1nn[nH]n1` [Example C30, (2S)-7-Acetamido-1-{2-[(2S,3S)-3-Methyl-2-(2-Phenylacetamido)Pentanamido]Acetyl}-N-(2H-1,2,3,4-Tetrazol-5-Ylmethyl)-2,3-Dihydro-1H-Indole-2-Carboxamide], the IC50 is reported as greater than 10000 nM. `CC[C@H](C)[C@H](NC(=O)C1=C(C(=O)O)CCCC1)C(=O)NCC(=O)N1c2ccccc2C[C@H]1C(=O)NCc1nn[nH]n1` [Example A31] was tested, and the IC50 was less than 100 nM. `CCC[C@H](NC(=O)Cc1ccccc1)C(=O)NCC(=O)N1c2ccccc2C[C@H]1C(=O)NCc1nn[nH]n1` [Example C5, (2S)-1-{2-[(2S)-2-(2-Phenylacetamido)Pentanamido]Acetyl}-N-(2H-1,2,3,4-Tetrazol-5-Ylmethyl)-2,3-Dihydro-1H-Indole-2-Carboxamide] was tested, and the IC50 was 1000 to 10000 nM. Work on `CC(C)(F)C(NC(=O)Cc1ccccc1)C(=O)NCC(=O)N1c2ccccc2C[C@H]1C(=O)NCc1nn[nH]n1` (mixture of isomers) [Example A41, (2S)-1-{2-[3-Fluoro-3-Methyl-2-(2-Phenylacetamido)Butanamido]Acetyl}-N-(2H-1,2,3,4-Tetrazol-5-Ylmethyl)-2,3-Dihydro-1H-Indole-2-Carboxamide] yielded an IC50 greater than 10000 nM. `CC[C@H](C)[C@H](NC(=O)[C@H](C)c1ccccc1)C(=O)NCC(=O)N1c2ccccc2C[C@H]1C(=O)NCc1nn[nH]n1` [Example A49, (2S)-1-{2-[(2S,3S)-3-Methyl-2-[(2R)-2-Phenylpropanamido]Pentanamido]Acetyl}-N-(2H-1,2,3,4-Tetrazol-5-Ylmethyl)-2,3-Dihydro-1H-Indole-2-Carboxamide] gave an IC50 of 100 to 1000 nM. Molecule `CC[C@H](C)[C@H](NC(=O)CCCCC(=O)O)C(=O)NCC(=O)N1c2ccccc2C[C@H]1C(=O)NCc1nn[nH]n1` [Example A5, 5-{[(1S,2S)-2-Methyl-1-({2-Oxo-2-[(2S)-2-[(2H-1,2,3,4-Tetrazol-5-Ylmethyl)Carbamoyl]-2,3-Dihydro-1H-Indol-1-Yl]Ethyl}Carbamoyl)Butyl]Carbamoyl}Pentanoic Acid] has an IC50 of less than 100 nM. For `CC[C@H](C)[C@H](NC(=O)Cc1ccccc1)C(=O)NCC(=O)N1c2cc(NC(=O)OC(C)(C)C)ccc2C[C@H]1C(=O)NCc1nn[nH]n1` [Example C19, Tert-Butyl N-[(2S)-1-{2-[(2S,3S)-3-Methyl-2-(2-Phenylacetamido)Pentanamido]Acetyl}-2-[(2H-1,2,3,4-Tetrazol-5-Ylmethyl)Carbamoyl]-2,3-Dihydro-1H-Indol-6-Yl]Carbamate], the IC50 was 100 to 1000 nM. In the case of `CC[C@H](C)[C@H](NC(=O)Cc1ccccc1)C(=O)NCC(=O)N1c2ccc(NCc3ccccc3)cc2C[C@H]1C(=O)NCc1nn[nH]n1` [Example C35], the IC50 is reported as greater than 10000 nM. Molecule `CC[C@H](C)[C@H](NC(=O)Cc1ccccc1)C(=O)NCC(=O)N1c2cc(OC)ccc2CC1C(=O)NCc1c[nH]nn1` (stereo partly drawn) [Example B6, 6-Methoxy-1-{2-[(2S,3S)-3-Methyl-2-(2-Phenylacetamido)Pentanamido]Acetyl}-N-(1H-1,2,3-Triazol-5-Ylmethyl)-2,3-Dihydro-1H-Indole-2-Carboxamide] has an IC50 of 1000 to 10000 nM. Work on `CC[C@H](C)[C@H](NC(=O)Cc1ccccc1)C(=O)NCC(=O)N1c2ccc(C)cc2CC1C(=O)NCc1c[nH]nn1` (mixture of isomers) [Example B7, 5-Methyl-1-{2-[(2S,3S)-3-Methyl-2-(2-Phenylacetamido)Pentanamido]Acetyl}-N-(1H-1,2,3-Triazol-4-Ylmethyl)-2,3-Dihydro-1H-Indole-2-Carboxamide] yielded an IC50 of 100 to 1000 nM. For `CO[C@H](C)[C@H](NC(=O)Cc1ccccc1)C(=O)NCC(=O)N1c2ccccc2C[C@H]1C(=O)NCc1nn[nH]n1` [Example C7, (2S)-1-{2-[(2S,3R)-3-Methoxy-2-(2-Phenylacetamido)Butanamido]Acetyl}-N-(2H-1,2,3,4-Tetrazol-5-Ylmethyl)-2,3-Dihydro-1H-Indole-2-Carboxamide], the IC50 was 1000 to 10000 nM. `CC[C@H](C)[C@H](NC(=O)Cc1ccccc1)C(=O)NCC(=O)N1c2cc(NCc3ccccc3)ccc2C[C@H]1C(=O)NCc1nn[nH]n1` [Example C21, (2S)-6-(Benzylamino)-1-{2-[(2S,3S)-3-Methyl-2-(2-Phenylacetamido)Pentanamido]Acetyl}-N-(2H-1,2,3,4-Tetrazol-5-Ylmethyl)-2,3-Dihydro-1H-Indole-2-Carboxamide] gave an IC50 greater than 10000 nM. `O=C(O)CCC(=O)N1CCC[C@H]1C(=O)NCC(=O)N1c2ccccc2C[C@H]1C(=O)NCc1nn[nH]n1` [Example C28, 4-Oxo-4-[(2S)-2-({2-Oxo-2-[(2S)-2-[(2H-1,2,3,4-Tetrazol-5-Ylmethyl)Carbamoyl]-2,3-Dihydro-1H-Indol-1-Yl]Ethyl}Carbamoyl)Pyrrolidin-1-Yl]Butanoic Acid] gave an IC50 greater than 10000 nM. Work on `CC[C@H](C)[C@H](NC(=O)C1C[C@@H]1C(=O)O)C(=O)NCC(=O)N1c2ccccc2C[C@H]1C(=O)NCc1nn[nH]n1` (stereo partly drawn) [Example A48, (1S,2S)-2-{[(1S,2S)-2-Methy-1-({2-Oxo-2-[(2S)-2-[(2H-1,2,3,4-Tetrazol-5-Ylmethyl)Carbamoyl]-2,3-Dihydro-1H-Indol-1-Yl]Ethyl}Carbamoyl)Butyl]Carbamoyl}Cyclopropane-1-Carboxylic Acid] yielded an IC50 of 1000 to 10000 nM. `CC[C@H](C)[C@H](NC(=O)Cc1cccc(N)c1)C(=O)NCC(=O)N1c2ccccc2C[C@H]1C(=O)NCc1nn[nH]n1` [Example A9, (2S)-1-{2-[(2S,3S)-2-[2-(3-Aminophenyl)Acetamido]-3-Methylpentanamido]Acetyl}-N-(2H-1,2,3,4-Tetrazol-5-Ylmethyl)-2,3-Dihydro-1H-Indole-2-Carboxamide Hydrochloride] was tested, and the IC50 was 100 to 1000 nM. With `C[C@@H](OC(C)(C)C)[C@H](NC(=O)Cc1ccccc1)C(=O)NCC(=O)N1c2ccccc2C[C@H]1C(=O)NCc1nn[nH]n1` [Example C9, (2S)-1-{2-[(2S,3R)-3-(Tert-Butoxy)-2-(2-Phenylacetamido)Butanamido]Acetyl}-N-(2H-1,2,3,4-Tetrazol-5-Ylmethyl)-2,3-Dihydro-1H-Indole-2-Carboxamide] the IC50 was greater than 10000 nM. `O=C(O)CCC(=O)N1CCCC[C@H]1C(=O)NCC(=O)N1c2ccccc2C[C@H]1C(=O)NCc1nn[nH]n1` [Example C25, 4-Oxo-4-[(2S)-2-({2-Oxo-2-[(2S)-2-[(2H-1,2,3,4-Tetrazol-5-Ylmethyl)Carbamoyl]-2,3-Dihydro-1H-Indol-1-Yl]Ethyl}Carbamoyl)Piperidin-1-Yl]Butanoic Acid] showed an IC50 of 1000 to 10000 nM. Work on `C[C@H](O)[C@H](NC(=O)Cc1ccccc1)C(=O)NCC(=O)N1c2ccccc2C[C@H]1C(=O)NCc1nn[nH]n1` [Example C3, (2S)-1-{2-[(2S,3S)-3-Hydroxy-2-(2-Phenylacetamido)Butanamido]Acetyl}-N-(2H-1,2,3,4-Tetrazol-5-Ylmethyl)-2,3-Dihydro-1H-Indole-2-Carboxamide] yielded an IC50 greater than 10000 nM. `C[C@H](OC(C)(C)C)[C@H](NC(=O)Cc1ccccc1)C(=O)NCC(=O)N1c2ccccc2C[C@H]1C(=O)NCc1nn[nH]n1` [Example C10, (2S)-1-{2-[(2S,3S)-3-(Tert-Butoxy)-2-(2-Phenylacetamido)Butanamido]Acetyl}-N-(2H-1,2,3,4-Tetrazol-5-Ylmethyl)-2,3-Dihydro-1H-Indole-2-Carboxamide] gave an IC50 greater than 10000 nM. Work on `CC[C@H](C)[C@H](NC(=O)/C=C/C(=O)O)C(=O)NCC(=O)N1c2ccccc2C[C@H]1C(=O)NCc1nn[nH]n1` [Example A36, (2E)-3-{[(1S,2S)-2-Methyl-1-({2-Oxo-2-[(2S)-2-[(2H-1,2,3,4-Tetrazol-5-Ylmethyl)Carbamoyl]-2,3-Dihydro-1H-Indol-1-Yl]Ethyl}Carbamoyl)Butyl]Carbamoyl}Prop-2-Enoic Acid] yielded an IC50 of less than 100 nM.
